This note sets out measurements from US12187758B2 (ROME Therapeutics, Inc., priority 2022, dated 2025).

In assay [1] the test system is interferon-stimulated gene (ISG) response. In words: In vivo decitabine challenge model in C57BL/6 mice. As to conditions: kidneys, decitabine i.p. 5 mg/kg, compound 1, 10, 100 mg/kg p.o. once a day. The method, then:
Exemplary compounds were tested for ability to alter the interferon-stimulated gene (ISG) response in C57BL/6 mice treated with decitabine. Assay procedures and results are described below. Twenty 9-11 week old C57BL/6 mice were acclimated to the lab for at least 5 days. Compound 23 was prepared in a 0.5% methylcellulose solution for p.o. administration. Decitabine (Sigma-Aldrich) was dissolved in sterile PBS (pH 7.4) and dosed within 30 minutes of preparation of the solution. Doses of both the compound and decitabine were administered once a day, every day from Day 0 to Day 4. […] The fold changes in interferon-stimulated gene (ISG) expression was calculated by first normalizing to GAPDH gene using the Delta CT method. The CT (gene of interest) —CT (reference gene) was calculated to generate a delta CT for all samples. […] The fold changes in interferon-stimulated gene (ISG, specifically IRF7 and MX1) expression was calculated by first normalizing to GAPDH gene using the Delta CT method. The CT (gene of interest)−CT (reference gene) was calculated to generate a delta CT for all samples. The fold change was then calculated by taking the […](Delta CT(control)−Delta CT (experimental). The control in this example was the PBS control animal group. Individual primers were used to amplify target genes.

The test system of assay [2] is THP1-Dual KO-TREX1 cells. In words: THP1 TREX1 KO inhibition assay, combination dosing. It is filed as cell-based. As to conditions: for EC50: Homo sapiens, THP1-Dual, read-out: EC50 of Compound 2. The method, then: Exemplary compounds were tested to determine the effect of combined dosing of two compounds on the type 1 interferon response in THP1 Dual TREX1 KO cells treated with 5-aza-2′-deoxycytidine. Assay procedures and results are described below.
THP1 Dual TREX1 KO cells were purchased from InvivoGen. The THP1-Dual™ KO-TREX1 cells were cultured in RPMI 1640, 10% heat-inactivated fetal bovine serum, 25 mM HEPES, 10 μg/mL blasticidin, and 100 μg/mL Zeocin. THP1-Dual™ KO-TREX1 cells were treated with a dose titration of test compound in the presence of 1 μM 5-aza-2′-deoxycytidine (Sigma, cat #189825). Type 1 Interferon and cell viability were assessed after five days of treatment.
Stock solution of test compounds stampidine and Compound 2 were prepared in DMSO followed by a three-fold dilution in DMSO. The plate was prepared with a matrix of test compound concentrations, with stampidine on the y-axis (final concentrations 3 μM to 0.0003 μM) and Compound 2 on the x-axis (final concentrations 0.3 μM to 0.00003 μM). Additional 50× dilution was prepared in cell culture media for each dilution. 10 μL of diluted test compound was then added to a 384-well plate.
THP1-Dual™ KO-TREX1 cells were treated with 1 μM 5-aza-2′-deoxycytidine. THP1-Dual™ KO-TREX1 cells (50 μL) were added to each well of the 384-well plate containing test compound titration at 10,000 cells/well. Cells were incubated at 37° C., 5% CO2 in a humidified incubator for five days. On day five, 20 μL of cell supernatant was transferred to a 384-well, white-walled plate, followed by addition to each well of 50 μL of QUANTI-LUC solution containing stabilizer. Luminescence was detected on a plate reader according to manufacturer's instructions. Percent inhibition of interferon was calculated using the following analysis: (Average DMSO-Sample)/(Average DMSO-Average 30 μM stampidine)*100.
The remaining cells were assessed for cell viability by adding 30 μl of CellTiter-Glo (Promega, G9683) solution to each well, and placed on a shaker for 10 minutes at room temperature. Luminescence was detected on a plate reader, according to manufacturer's instructions. Percent inhibition of cell viability using CellTiter-Glo was calculated using the following analysis: (Average DMSO−Sample)/(Average DMSO−Average 20 μM viability control reagent)*100.
Combination analysis was performed using the Bivariate Response to Additive Interacting Doses (BRAID) according to Twarog, N. R., et al. Scientific Reports 6:25523 (DOI: 10.1038/srep25523). The best BRAID fit was determined to be k 2.00 (0.583-3.64), where k>0 denotes synergy, k=0 denotes additivity, and k<0 denotes antagonism. Potentiation modeling curves are provided for potentiation of Compound 2 at four concentrations of stampidine (FIG. 7A) and for potentiation of stampidine at four concentrations of Compound 2 (FIG. 7B).

Like-named read-outs stand apart in the source and are kept apart here.

A word on the EC50: it is the concentration needed to bring the measured effect to its halfway point.

Turning to `Nc1ccn([C@H]2C[C@H](O)[C@](CO)(CCl)O2)c(=O)n1` [Compound 2, 4-amino-1-((2R,4S,5R)-5-(chloromethyl)-4-hydroxy-5-(hydroxymethyl)tetrahydrofuran-2-yl)pyrimidin-2(1H)-one], the “change in ISG response (IRF7 and MX1), FIGS. 2B and 2C” value in assay [1] was “shows a change in the ISG response”. Besides, the EC50 is 40 nM in assay [2] (Stampidine 0 μM), 33.5 nM in assay [2] (Stampidine 0.001 μM), 20.3 nM in assay [2] (Stampidine 0.01 μM) and 0.15 nM in assay [2] (Stampidine 0.1 μM). The “BRAID fit k (k>0 denotes synergy)” value in assay [2] (combination of stampidine and Compound 2, 1 μM 5-aza-2′-deoxycytidine, five days) is recorded as 2.00 (0.583-3.64).
